Source: US20140094387A1, “SUV39H2 AS A TARGET GENE FOR CANCER THERAPY AND DIAGNOSIS” (ONCOTHERAPY SCIENCE, INC., priority 2011, published 2014)

Tested on: SUV39H2
Assay: Quantitative real-time PCR of SUV39H2 expression after siRNA transfection
Assay type: cell-based, human
Conditions: A549 and SW780 cells; siRNA 100 nM; normalized by GAPDH, relative to siEGFP (siEGFP=1); vs control siRNAs siEGFP and siNC

Substance | SUV39H2 mRNA expression level
siSUV39H2#1: siRNA duplex targeting human SUV39H2; target 5' CUUUGGUUGUUCAUGCACA 3' (SEQ ID NO: 19); sense SEQ ID NO: 15, antisense SEQ ID NO: 16 (sense CUUUGGUUGUUCAUGCACATT; antisense UGUGCAUGAACAACCAAAGTT; chemistry not given here) | suppression of endogenous SUV39H2 expression
siSUV39H2#2: siRNA duplex targeting human SUV39H2; target 5' CUGGAAUCAGCUUAGUCAA 3' (SEQ ID NO: 20); sense SEQ ID NO: 17, antisense SEQ ID NO: 18 (sense CUGGAAUCAGCUUAGUCAATT; antisense UUGACUAAGCUGAUUCCAGTT; chemistry not given here) | suppression of endogenous SUV39H2 expression
